# Measured values taken from patent publication US10829520B2, “Beta-hairpin peptidomimetics” (POLYPHOR AG, priority 2015, dated 2020).
# Where a SMILES comes first, the peptide text is derived from it. Bridges are numbered along the chain shown (N, C = ends). Roman numbers before positions name the chains, in order. [ ]: non-standard residue; d: D form. Tle = CC(C)(C)[C@H](N)C(=O)O; dDab = NCC[C@@H](N)C(=O)O; Nle = CCCC[C@H](N)C(=O)O; Orn = NCCC[C@H](N)C(=O)O; Dab = NCC[C@H](N)C(=O)O; dAze = O=C(O)[C@H]1CCN1; Dap = NC[C@H](N)C(=O)O
# Tests used:
# Assay type in all cases: cell-based
# [1] = system: Acinetobacter baumannii 872842; conditions: 872842
# [2] = system: Acinetobacter baumannii DSM 30008; conditions: DSM 30008
# Method in brief: (§1)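 CLSI broth microdilution in cation-adjusted Mueller-Hinton II broth with 0.002% Polysorbate 80, inoculum appr. 10^6 CFU/mL, peptides in serial two-fold dilutions. MIC (μg/mL) is the lowest concentration with no visible growth after 18-20 hours at 35° C.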
# [3] = system: Escherichia coli 926415; conditions: 926415
# [4] = system: Escherichia coli ATCC 25922; conditions: ATCC 25922
# Method in brief: as §1
# [5] = system: Klebsiella pneumoniae 968733; conditions: 968733
# [6] = system: Klebsiella pneumoniae SSI #3010; conditions: SSI #3010
# Method in brief: as §1
# [7] = system: Pseudomonas aeruginosa ATCC 27853; conditions: ATCC 27853
# Method in brief: as §1
# [8] = system: human red blood cells (hRBC); assay: Hemolysis of human red blood cells; conditions: red cells of human, 1 h
# Method in brief: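 Hemolysis was read as supernatant absorbance at 540 nm and expressed as a percentage of Triton X-100 (2.5%) lysis. Washed human red cells (20% v/v) had been exposed to each peptide at 100 μg/mL for 1 h at 37° C.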
SMILES,Acinetobacter baumannii 872842 MIC [1] [µg/mL],Acinetobacter baumannii DSM 30008 MIC [2] [µg/mL],Escherichia coli 926415 MIC [3] [µg/mL],Escherichia coli ATCC 25922 MIC [4] [µg/mL],Klebsiella pneumoniae 968733 MIC [5] [µg/mL],Klebsiella pneumoniae SSI #3010 MIC [6] [µg/mL],Pseudomonas aeruginosa ATCC 27853 MIC [7] [µg/mL],Hemolysis at 100 μg/mL ([8]; 100 μg/mL) [%],Hemolysis at 100 μg/mL [8]; 100 [%]
CC(C)C[C@@H]1NC(=O)[C@@H](CC(C)C)NC(=O)[C@H](CCN)NC(=O)[C@@H](NC(=O)[C@H](CCN)NC(=O)[C@H](CN)NC(=O)[C@@H]2CSSC[C@H](NC(=O)[C@@H](N)Cc3c[nH]c4ccccc34)C(=O)N[C@@H](C(C)(C)C)C(=O)N[C@@H](C)C(=O)N[C@@H]([C@@H](C)O)C(=O)N3CC[C@@H]3C(=O)N3CCC[C@H]3C(=O)N[C@@H](C(C)C)C(=O)N[C@@H](CO)C(=O)N[C@@H](Cc3ccc(O)cc3)C(=O)N2)CCNC(=O)[C@H]([C@@H](C)O)NC(=O)[C@H](CCN)NC(=O)[C@H](CCN)NC1=O [Ex. 189] (H-WC[Tle]AT[dAze]PVSYC[Dap][Dab][Dab][Dab][dL]L[Dab][Dab]T; disulfide 2-11; lactam 14-C),0.125,0.5,0.5,0.25,1,0.5,2,1,–
"CC(C)C[C@@H]1NC(=O)[C@@H](Cc2ccccc2)NC(=O)[C@H](CCN)NC(=O)[C@@H](NC(=O)[C@H](CCN)NC(=O)[C@H](CCCN)NC(=O)[C@@H]2CSSC[C@H](NC(=O)[C@@H](N)Cc3c[nH]c4ccccc34)C(=O)N[C@@H](C(C)(C)C)C(=O)N[C@H]3CC(=O)NCC[C@H](NC(=O)[C@H](C(C)C)NC(=O)[C@@H]4CCCN4C(=O)[C@H]4CCN4C(=O)[C@H]([C@@H](C)O)NC3=O)C(=O)N[C@@H](Cc3ccc(O)cc3)C(=O)N2)CCNC(=O)[C@H]([C@@H](C)O)NC(=O)[C@H](CCN)NC(=O)[C@H](CCN)NC1=O [Ex. 191] (H-WC[Tle]DT[dAze]PV[Dab]YC[Orn][Dab][Dab][Dab][dF]L[Dab][Dab]T; disulfide 2-11; lactam 4-9, 14-C)",0.25,0.5,0.125,0.5,0.5,0.25,1,6,–
"CCCC[C@@H]1NC(=O)[C@@H]2CCCN2C(=O)[C@H]2CCCN2C(=O)[C@H](CO)NC(=O)[C@H](C)NC(=O)[C@H](C(C)(C)C)NC(=O)[C@H](CCN)NC(=O)[C@H](Cc2c[nH]c3ccccc23)NC(=O)[C@@H](N)CCC(=O)NCC[C@@H](C(N)=O)NC(=O)[C@H](CCC(=O)N[C@H](CCN)C(=O)N[C@H]2CCNC(=O)[C@H]([C@@H](C)O)NC(=O)[C@H](CCN)NC(=O)[C@H](CCN)NC(=O)[C@H](CC(C)C)NC(=O)[C@@H](Cc3ccccc3)NC(=O)[C@H](CCN)NC2=O)NC(=O)[C@H](CCN)NC(=O)[C@H](Cc2ccc(O)cc2)NC(=O)[C@H](CO)NC1=O [Ex. 193] (I: H-EW[Dab][Tle]AS[dP]P[Nle]SY[Dab]E[Dab]-NH2 / II: [dDab][Dab][Dab][dF]L[Dab][Dab]T; lactam I:1-I:14, II:2-II:C; amide I:13-II:N)",1,1,0.5,0.5,1,0.5,2,–,<1
CCCC[C@@H]1NC(=O)[C@@H]2CCCN2C(=O)[C@H]2CCCN2C(=O)[C@H](CO)NC(=O)[C@H](C)NC(=O)[C@H](C(C)(C)C)NC(=O)[C@H](CCN)NC(=O)[C@H](Cc2c[nH]c3ccccc23)NC(=O)[C@@H](NC(C)=O)CSSC[C@@H](C(N)=O)NC(=O)[C@H](CCC(=O)N[C@H](CCN)C(=O)N[C@H]2CCNC(=O)[C@H]([C@@H](C)O)NC(=O)[C@H](CCN)NC(=O)[C@H](CCN)NC(=O)[C@H](CC(C)C)NC(=O)[C@@H](Cc3ccccc3)NC(=O)[C@H](CCN)NC2=O)NC(=O)[C@H](CCN)NC(=O)[C@H](Cc2ccc(O)cc2)NC(=O)[C@H](CO)NC1=O [Ex. 194] (I: Ac-CW[Dab][Tle]AS[dP]P[Nle]SY[Dab]EC-NH2 / II: [dDab][Dab][Dab][dF]L[Dab][Dab]T; disulfide I:1-I:14; amide I:13-II:N; lactam II:2-II:C),2,0.5,1,0.25,2,0.5,2,<1,–
"CCCC[C@@H]1NC(=O)[C@@H]2CCCN2C(=O)[C@H]2CCCN2C(=O)[C@H](CO)NC(=O)[C@H](C)NC(=O)[C@H](C(C)(C)C)NC(=O)[C@H](CCN)NC(=O)[C@H](Cc2c[nH]c3ccccc23)NC(=O)[C@@H](NC(C)=O)CCNC(=O)CC[C@@H](C(=O)N[C@H](CCN)C(=O)N[C@H]2CCNC(=O)[C@H]([C@@H](C)O)NC(=O)[C@H](CCN)NC(=O)[C@H](CCN)NC(=O)[C@H](CC(C)C)NC(=O)[C@@H](CC(C)C)NC(=O)[C@H](CCN)NC2=O)NC(=O)[C@H](CCCN)NC(=O)[C@H](CCN)NC(=O)[C@H](Cc2ccc(O)cc2)NC(=O)[C@H](CO)NC1=O [Ex. 196] (Ac-[Dab]W[Dab][Tle]AS[dP]P[Nle]SY[Dab][Orn]E[dDab][Dab][Dab][dL]L[Dab][Dab]T; lactam 1-14, 16-C)",0.5,0.25,0.125,0.125,0.5,0.25,1,–,<1
"CCCC[C@@H]1NC(=O)[C@@H]2CCCN2C(=O)[C@H]2CCCN2C(=O)[C@H](CO)NC(=O)[C@H](C)NC(=O)[C@H](C(C)(C)C)NC(=O)[C@H](CCN)NC(=O)[C@H](Cc2c[nH]c3ccccc23)NC(=O)[C@@H](NC(C)=O)CCNC(=O)CC[C@@H](C(=O)N[C@H](CCN)C(=O)N[C@H]2CCNC(=O)[C@H]([C@@H](C)O)NC(=O)[C@H](CCN)NC(=O)[C@H](CCN)NC(=O)[C@H](CC(C)C)NC(=O)[C@@H](Cc3ccccc3)NC(=O)[C@H](CCN)NC2=O)NC(=O)[C@H](CCCN)NC(=O)[C@H](CCN)NC(=O)[C@H](Cc2ccc(O)cc2)NC(=O)[C@H](CO)NC1=O [Ex. 197] (Ac-[Dab]W[Dab][Tle]AS[dP]P[Nle]SY[Dab][Orn]E[dDab][Dab][Dab][dF]L[Dab][Dab]T; lactam 1-14, 16-C)",4,0.5,0.25,0.0625,2,0.25,2,–,2
"CCCC[C@@H]1NC(=O)[C@@H]2CCCN2C(=O)[C@H]2CCCN2C(=O)[C@H](CO)NC(=O)[C@H](C)NC(=O)[C@H](C(C)(C)C)NC(=O)[C@H](CCN)NC(=O)[C@H](Cc2c[nH]c3ccccc23)NC(=O)[C@@H](N)CCC(=O)NCC[C@@H](C(=O)N[C@H](CCN)C(=O)N[C@H]2CCNC(=O)[C@H]([C@@H](C)O)NC(=O)[C@H](CCN)NC(=O)[C@H](CCN)NC(=O)[C@H](CC(C)C)NC(=O)[C@@H](Cc3ccccc3)NC(=O)[C@H](CCN)NC2=O)NC(=O)[C@H](CCCN)NC(=O)[C@H](CCN)NC(=O)[C@H](Cc2ccc(O)cc2)NC(=O)[C@H](CO)NC1=O [Ex. 198] (H-EW[Dab][Tle]AS[dP]P[Nle]SY[Dab][Orn][Dab][dDab][Dab][Dab][dF]L[Dab][Dab]T; lactam 1-14, 16-C)",1,0.25,0.5,0.0625,1,0.125,0.5,–,1
